Results as given in article PMC5263201, “GABAA receptor occupancy by subtype selective GABAAα2,3 modulators: PET studies in humans” (Psychopharmacology, 2016).
Like-named read-outs stand apart in the source and are kept apart here.

How the values were obtained:
[1] = test system: GABAA α1β2γ2; parameters: method as in Christian et al 2015; conditions: 1µM test concentration, GABA EC10, % of 1 µM diazepam, mean ±SE, ref Christian et al 2015; cited from earlier work
[2] = Binding to human plasma proteins; format: in vitro ADME; conditions: read-out: unbound fraction of the total plasma drug
[3] = target: GABAA α5β3γ2; parameters: method as in Christian et al 2015; conditions: recombinant Sf9 membranes α5β3γ2; [3H]flunitrazepam; mean (SD); ref Christian et al 2015; read-out: Affinity in vitro at BZ binding site (Ki) α5; cited from earlier work
[4] = target: GABAA α3β3γ2; parameters: method as in Christian et al 2015; conditions: recombinant Sf9 membranes α3β3γ2; [3H]flunitrazepam; mean (SD); ref Christian et al 2015; read-out: Affinity in vitro at BZ binding site (Ki) α3; cited from earlier work
[5] = AZD6280; ref parallel multiple ascending dose study; cited from earlier work
[6] = parameters: method as in AstraZeneca Single Ascending Dose studies; conditions: ref AstraZeneca Single Ascending Dose studies, cited from earlier work
[7] = test system: GABAA α3β3γ2; parameters: method as in Christian et al 2015; conditions: 1µM test concentration, GABA EC10, % of 1 µM diazepam, mean ±SE, ref Christian et al 2015; cited from earlier work
[8] = target: GABAA α1β2γ2; parameters: method as in Christian et al 2015; conditions: recombinant Sf9 membranes α1β2γ2; [3H]flunitrazepam; mean (SD); ref Christian et al 2015; read-out: Affinity in vitro at BZ binding site (Ki) α1; cited from earlier work
[9] = target: P-gp (Homo sapiens, UniProt P08183); assay: P-gp substrate assessment; format: in vitro ADME
Chain of P-gp (P08183 whole entry): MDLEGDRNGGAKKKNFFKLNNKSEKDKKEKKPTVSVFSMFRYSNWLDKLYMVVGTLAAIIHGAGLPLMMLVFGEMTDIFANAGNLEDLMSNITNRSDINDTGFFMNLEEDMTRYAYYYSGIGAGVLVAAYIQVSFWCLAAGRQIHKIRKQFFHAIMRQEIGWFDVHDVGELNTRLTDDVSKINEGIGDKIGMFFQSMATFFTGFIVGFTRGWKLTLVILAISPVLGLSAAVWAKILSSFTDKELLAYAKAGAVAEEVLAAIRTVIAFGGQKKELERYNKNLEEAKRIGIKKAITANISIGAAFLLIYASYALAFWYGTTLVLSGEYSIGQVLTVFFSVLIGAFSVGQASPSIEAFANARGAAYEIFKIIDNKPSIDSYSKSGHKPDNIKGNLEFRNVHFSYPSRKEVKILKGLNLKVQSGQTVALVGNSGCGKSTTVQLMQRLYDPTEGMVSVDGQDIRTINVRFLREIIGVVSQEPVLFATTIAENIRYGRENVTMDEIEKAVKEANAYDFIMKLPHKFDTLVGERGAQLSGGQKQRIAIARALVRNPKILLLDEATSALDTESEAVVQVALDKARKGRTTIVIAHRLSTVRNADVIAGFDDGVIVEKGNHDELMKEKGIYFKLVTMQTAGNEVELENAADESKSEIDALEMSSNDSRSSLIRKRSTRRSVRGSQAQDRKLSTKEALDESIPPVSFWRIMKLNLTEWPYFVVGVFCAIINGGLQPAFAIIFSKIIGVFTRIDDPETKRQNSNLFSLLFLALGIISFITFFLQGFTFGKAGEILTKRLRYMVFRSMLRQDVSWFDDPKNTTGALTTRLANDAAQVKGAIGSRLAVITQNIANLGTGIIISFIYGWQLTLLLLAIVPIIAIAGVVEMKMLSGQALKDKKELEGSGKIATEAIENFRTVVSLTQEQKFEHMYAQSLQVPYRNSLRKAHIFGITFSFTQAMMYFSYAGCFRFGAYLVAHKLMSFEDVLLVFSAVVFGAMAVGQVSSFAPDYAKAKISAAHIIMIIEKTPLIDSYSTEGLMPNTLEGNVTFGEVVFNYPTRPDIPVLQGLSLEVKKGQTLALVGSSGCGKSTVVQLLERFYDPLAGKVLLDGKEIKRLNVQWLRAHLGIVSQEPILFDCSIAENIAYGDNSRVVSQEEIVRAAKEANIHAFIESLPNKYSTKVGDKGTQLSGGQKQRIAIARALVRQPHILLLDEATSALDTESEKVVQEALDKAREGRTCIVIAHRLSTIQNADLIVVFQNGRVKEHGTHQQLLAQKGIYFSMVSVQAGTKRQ

[10] = AZD6280 1mg, Part A, 8 subjects
[11] = AZD6280 5mg, Part B, 8 subjects
[12] = AZD6280 20mg, Part A, 8 subjects
[13] = AZD6280 30mg, Part B, 7 subjects
[14] = AZD6280 40mg, Part A, 8 subjects
[15] = AZD6280 60mg, Part B, 8 subjects

SMILES: CCCNC(=O)c1nnc2c(-c3cc(OC)ccc3OC)cccc2c1N [AZD6280]
- Relative efficacy (%DZ) α1 [1]: 9±3%
- fraction unbound [2]: ~0.1
- Ki [3]: 1680 ± 650 nM
- Ki [4]: 31 ± 17 nM
- maximum tolerated dose (MTD) [5]: 40 mg
- Number of subjects with at least one adverse event [6, 10]: 2 (25) Number (%) of patients
- abnormal coordination [6, 10]: 0 Number (%) of patients
- depersonalisation [6, 10]: 0 Number (%) of patients
- dizziness [6, 10]: 0 Number (%) of patients
- dreamy state [6, 10]: 0 Number (%) of patients
- euphoric mood [6, 10]: 0 Number (%) of patients
- headache [6, 10]: 1 (13) Number (%) of patients
- nystagmus [6, 10]: 0 Number (%) of patients
- somnolence [6, 10]: 0 Number (%) of patients
- abnormal coordination [6, 11]: 0 Number (%) of patients
- depersonalisation [6, 11]: 0 Number (%) of patients
- dizziness [6, 11]: 2 (25) Number (%) of patients
- dreamy state [6, 11]: 0 Number (%) of patients
- euphoric mood [6, 11]: 0 Number (%) of patients
- headache [6, 11]: 1 (13) Number (%) of patients
- nystagmus [6, 11]: 0 Number (%) of patients
- somnolence [6, 11]: 1 (13) Number (%) of patients
- Number of subjects with at least one adverse event [6, 12]: 6 (75) Number (%) of patients
- abnormal coordination [6, 12]: 0 Number (%) of patients
- depersonalisation [6, 12]: 0 Number (%) of patients
- dizziness [6, 12]: 0 Number (%) of patients
- dreamy state [6, 12]: 0 Number (%) of patients
- euphoric mood [6, 12]: 0 Number (%) of patients
- headache [6, 12]: 2 (25) Number (%) of patients
- nystagmus [6, 12]: 0 Number (%) of patients
- somnolence [6, 12]: 1 (13) Number (%) of patients
- Number of subjects with at least one adverse event [6, 13]: 2 (29) Number (%) of patients
- abnormal coordination [6, 13]: 0 Number (%) of patients
- depersonalisation [6, 13]: 0 Number (%) of patients
- dizziness [6, 13]: 0 Number (%) of patients
- dreamy state [6, 13]: 0 Number (%) of patients
- euphoric mood [6, 13]: 1 (14) Number (%) of patients
- headache [6, 13]: 0 Number (%) of patients
- nystagmus [6, 13]: 0 Number (%) of patients
- somnolence [6, 13]: 2 (29) Number (%) of patients
- Number of subjects with at least one adverse event [6, 14]: 6 (75) Number (%) of patients
- abnormal coordination [6, 14]: 0 Number (%) of patients
- depersonalisation [6, 14]: 0 Number (%) of patients
- dizziness [6, 14]: 0 Number (%) of patients
- dreamy state [6, 14]: 0 Number (%) of patients
- euphoric mood [6, 14]: 1 (13) Number (%) of patients
- headache [6, 14]: 0 Number (%) of patients
- nystagmus [6, 14]: 0 Number (%) of patients
- somnolence [6, 14]: 3 (38) Number (%) of patients
- Number of subjects with at least one adverse event [6, 15]: 7 (88) Number (%) of patients
- abnormal coordination [6, 15]: 1 (13) Number (%) of patients
- depersonalisation [6, 15]: 1 (13) Number (%) of patients
- dizziness [6, 15]: 2 (25) Number (%) of patients
- dreamy state [6, 15]: 1 (13) Number (%) of patients
- euphoric mood [6, 15]: 0 Number (%) of patients
- headache [6, 15]: 1 (13) Number (%) of patients
- nystagmus [6, 15]: 1 (13) Number (%) of patients
- somnolence [6, 15]: 3 (38) Number (%) of patients
- Relative efficacy (%DZ) α3 [7]: 34±3%
- Ki [8]: 0.5 ± 0.2 nM
- P-gp substrate [9]: Neither compound is a P-gp substrate
